Reference: patent US20230303599A1, “PRODRUGS OF PHOSPHONAMIDE NUCLEOTIDE ANALOGUES AND THEIR PHARMACEUTICAL USE” (priority 2020, published 2023)
≈ marks a conversion by molar mass, not a printed value. Read-outs that look alike come from different tables or passages of the source.

Tests used:
HIV-1 (IIIB) = assay: Antiviral (HIV) assay in MT-4 cells; type: cell-based
Description: Example 104: Antiviral (HIV) Assay in MT-4 Cells
Compounds were tested in a high-throughput 384-well assay format for their ability to inhibit the replication of HIV-1 (IIIB) in MT-4 cells. Compounds were serially diluted (1:3) in DMSO on 384-well polypropylene plates and further diluted 200-fold into complete RPMI media (10% FBS, 1% P/S) using the Biotek Micro Flow and Labcyte ECHO acoustic dispenser. Each plate contained up to 8 test compounds, with negative (no drug) and positive (5 μM AZT) controls. MT-4 cells were pre-treated with 10 μL of either RPMI (mock-infected) or a fresh 1:250 dilution of HIV-1 IIIB concentrated virus stock. Infected and uninfected MT-4 cells were further diluted in complete RPMI media and added to each plate using a Micro Flow dispenser. After 5 days incubation in a humidified and temperature-controlled incubator (37° C.), Cell Titer Glo (Promega) was added to the assay plates and chemiluminescence read using an Envision plate-reader. EC50 values were defined as the compound concentration that causes a 50% decrease in luminescence signal and were calculated using a sigmoidal dose-response model to generate curve fits and are shown in Table 1.

PBMCs = assay: TFV-DP formation in peripheral blood mononuclear cells (PBMCs); type: in vitro ADME, human; conditions: 1 μM compound, 2 hrs at 37° C., 50% serum, activated PBMCs; average of at least two independent experiments
Description: Example 109: TFV-DP Formation in Peripheral Blood Mononuclear Cells (PBMCs)
Compounds were tested in a 96-well assay format for the level of TFV-DP loading in PBMCs in the presence of human serum. PBMCs were activated with 100 units/mL recombinant human […] and […] phytohaemagglutinin (PHA) for 36 hrs. After activation, PBMCs (2 million) were incubated with compounds (1 μM) and cell culture media with 50% serum in a 96 well plate for 2 hrs at 37° C. Cells were transferred to a 96 well deep block plate and spun down. Liquid was removed, and cells were washed 2× with 1 mL of 0.9% saline with spin downs between washes. After a final wash and liquid removal, 500 μL of MeOH+200 nM C1-ATP+200 nM [adenine-^13Cs]-tenofovir diphosphate (tetra ammonium salt) was added and thoroughly mixed with the cells. The plate was then spun down and 450 μL of sample was transferred to a new 96 well plate. Supernatants were then evaporated, reconstituted in 80 μl of 1 mM ammonium phosphate and thoroughly vortexed. Blank samples were pooled for serial dilution to construct calibration standards for TFV, TFV-DP and TFV-TP in pmol/million cells. Samples were then transferred to a short-well 96 well plate, centrifuged and injected on an LC-MS/MS for quantification. Values were reported in μM units using an intracellular volume of […].

[1] = Kinetic solubility analysis; type: physicochemical; conditions: 1× PBS, 24.2 °C, aqueous buffer, kinetic from dmso stock; pH 7.4 PBS, 1% DMSO, 24-hour incubation at ambient temperature
In short: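 Compounds from 10 mM DMSO stocks were incubated in 0.1 N HCl or 1× PBS pH 7.4 (1.0% DMSO, 100 μM maximum theoretical) for 24 h at 24.2-27.5 °C, then vacuum filtered. Filtrates were quantified in μM by chemiluminescent nitrogen detection against a calibration curve, corrected for background nitrogen; values for adjacent ring-nitrogen compounds were raised ~25%.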

[2] = Cytotoxicity assay in MT-4 cells; type: cell-based; conditions: human, uninfected MT-4 cells, average of at least two independent experiments, read-out: MT4 CC50
In short: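 Uninfected MT-4 cells were incubated 5 days at 37 °C with 1:3 serially diluted compound in RPMI (10% FBS), with 10 μM puromycin as baseline cytotoxicity. Viability was read by CellTiter-Glo luminescence. Values are concentrations giving 50% luminescence decrease, from sigmoidal dose-response fits.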

[3] = Cytotoxicity assay in primary human hepatocytes (PHHs); type: cell-based; conditions: HBV-infected primary human hepatocytes, HBV-infected PHH, Cell Titer Glo, average of at least two independent experiments
In short: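 HBV-infected primary human hepatocytes seeded at 20K cells/well on compound-prespotted collagen plates and incubated 5 days. After removing supernatant for HBV DNA analysis, viability measured in remaining cells by CellTiter-Glo luminescence.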

HBV = assay: Antiviral (HBV) assay in primary human hepatocytes (PHHs); type: cell-based; conditions: Hepatitis B virus, Hepatocyte, 120 h; HBV (GTD) infected PHH, 5 days, HBV DNA in supernatant; average of at least two independent experiments
Description: Example 106: Antiviral (HBV) Assay in Primary Human Hepatocytes (PHHs)
Cryopreserved PHH were thawed, recovered by centrifugation at 100 g in cryopreserved hepatocyte recovery medium (Thermo Fisher Scientific; CM7500), and plated on collagen matrix (Life Technologies; Catalog Number: R-011-K) coated T225 flasks (Corning CellBIND, Catalog Number: 3293) at a density of 25E6 live cells in 60 mls media. Cells were plated in William's E medium (Thermo Fisher Scientific; A1217601) supplemented with 3.6% hepatocyte thawing and plating supplement (Thermo Fisher Scientific, A15563), 5% fetal bovine serum (Thermo Fisher Scientific; 16000-036), 1 μM dexamethasone (Thermo Fisher Scientific, A15563), and 0.2% Torpedo antibiotic mix (Bioreclamation; Z990008). The plating medium was removed after 14 hours and the cells were subsequently cultured in maintenance medium: William's E medium supplemented with 4% hepatocyte maintenance supplement (Thermo Fisher Scientific; AI15564), 2% fetal bovine serum, 0.1μ M dexamethasone, 1.5% DMSO (Sigma-Aldrich, St. Louis, MO; D8418), and 0.2% Torpedo antibiotic mix. Approximately 24 hours after plating, PHH were infected with HepAD38-derived GTD virus at 500 viral genome equivalents per cell in PHH maintenance medium supplemented with 4% PEG 8000 (Promega, Madison, WI; V3011). Infections were allowed to proceed for 24 hours before removing the remaining extracellular virions by washing with maintenance medium three times. After allowing viral infection to take place for 3 days, the infected cells were harvested from the flasks by trypsinization (0.25X in PBS without Ca/Mg, 25 minutes) following a 4 minute 0.5X Versene (Life Technologies Catalog Number: 15040-066) treatment and two PBS washes. Trypsinized cells were inactivated in 10% FBS containing maintenance medium, centrifuged 6 minutes at 50 g, resuspended in hepatocyte maintenance medium, filtered through a 40 uM cell strainer, and adjusted to a density of 0.25E6 cells/ml. Infected cells were seeded on 384 well collagen coated plates (Greiner, Austria) at a density of 20,000 cells/well containing serially diluted compounds of the present disclosure or DMSO (0.5%) in a final volume of 80 μl. The assay plates were incubated for a period of 5 days and the antiviral activity of the test compounds were assayed by detecting the presence of HBV DNA in the culture supernatant using the QuantiGene™ 2.0 nucleic acid quantification kit (Affymetrix, Santa Clara, CA).

[4] = Human immunodeficiency virus 1, IIIB, MT4, 120 h, read-out: MT4 HIV EC50 (nM)

| Compound | solubility kinetic at 24 h [1] [µg/mL] | CC50 at 5 days [2] [nM] | other results |
| --- | --- | --- | --- |
| CC(C)CCCOC(=O)C(C)(C)NP(=O)(CO[C@H](C)Cn1cnc2c(N)ncnc21)NC(C)(C)C(=O)OCCCC(C)C [Example 67, Bis(4-methylpentyl) 2,2′-(((((1-(6-amino-9H-purin-9-yl)propan-2-yl)oxy)methyl)phosphoryl)bis(azanediyl))(R)-bis(2-methylpropanoate)] |  |  | EC50 (HIV-1 (IIIB); HIV-1 IIIB in MT-4 cells, 5 days, Cell Titer Glo, average of at least two independent experiments, read-out: MT4 HIV EC50): 8 nM; Average PBMC TFV-DP (PBMCs): 5.5 µM |
| C[C@H](Cn1cnc2c(N)ncnc21)OCP(=O)(NC(C)(C)C(=O)OC1CCOCC1)NC(C)(C)C(=O)OC1CCOCC1 [Example 24, Bis(tetrahydro-2H-pyran-4-yl) 2,2′-(((((1-(6-amino-9H-purin-9-yl)propan-2-yl)oxy)methyl)phosphoryl)bis(azanediyl))(R)-bis(2-methylpropanoate)] | 69 (≈ 110 µM) |  | Average PBMC TFV-DP (μM) (PBMCs): BLQ |
| C[C@H](Cn1cnc2c(N)ncnc21)OCP(=O)(NC(C)(C)C(=O)OCC1CCC(C)(C)CC1)NC(C)(C)C(=O)OCC1CCC(C)(C)CC1 [Example 13, Bis((4,4-dimethylcyclohexyl)methyl) 2,2′-(((((1-(6-amino-9H-purin-9-yl)propan-2-yl)oxy)methyl)phosphoryl)bis(azanediyl))(R)-bis(2-methylpropanoate)] | < 1 | 5470 | EC50 (HIV-1 (IIIB); Human immunodeficiency virus 1, MT4, 120 h, HIV-1 IIIB in MT-4 cells, 5 days, Cell Titer Glo, average of at least two independent experiments, read-out: MT4 HIV EC50): 16 nM |
| CCCCCCOC(=O)C(C)(C)NP(=O)(CO[C@H](C)Cn1cnc2c(NC(=O)CC(C)(C)CC(=O)OCc3oc(=O)oc3C)ncnc21)NC(C)(C)C(=O)OCCCCCC [Example 102, Dihexyl 2,2′-(((((1-(6-(3,3-dimethyl-5-((5-methyl-2-oxo-1,3-dioxol-4-yl)methoxy)-5-oxopentanamido)-9H-purin-9-yl)propan-2-yl)oxy)methyl)phosphoryl)bis(azanediyl))(R)-bis(2-methylpropanoate)] | 10 (≈ 11.4 µM) | 45100 | Average PBMC TFV-DP (μM) (PBMCs): BLQ |
| C[C@H](Cn1cnc2c(N)ncnc21)OCP(=O)(NC(C)(C)C(=O)O[C@H]1CC[C@H](C(C)(C)C)CC1)NC(C)(C)C(=O)O[C@H]1CC[C@H](C(C)(C)C)CC1 [Example 12, Bis(trans-4-(tert-butyl)cyclohexyl) 2,2′-((((((R)-1-(6-amino-9H-purin-9-yl)propan-2-yl)oxy)methyl)phosphoryl)bis(azanediyl))bis(2-methylpropanoate)] | < 1 |  | Average PBMC TFV-DP (μM) (PBMCs): BLQ |
| C[C@H](Cn1cnc2c(N)ncnc21)OCP(=O)(NC(C)(C)C(=O)OCCc1ccccc1)NC(C)(C)C(=O)OCCc1ccccc1 [Example 103, Diphenethyl 2,2′-(((((1-(6-amino-9H-purin-9-yl)propan-2-yl)oxy)methyl)phosphoryl)bis(azanediyl))(R)-bis(2-methylpropanoate)] |  | > 42500 | EC50 (HIV-1 (IIIB); [4]): > 500 nM |
| CCCCCCOC(=O)C(C)(C)NP(=O)(CO[C@H](C)Cn1cnc2c(NC(=O)CC(C)(C)c3c(C)cc(C)cc3OC(C)=O)ncnc21)NC(C)(C)C(=O)OCCCCCC [Example 100, Dihexyl 2,2′-(((((1-(6-(3-(2-acetoxy-4,6-dimethylphenyl)-3-methylbutanamido)-9H-purin-9-yl)propan-2-yl)oxy)methyl)phosphoryl)bis(azanediyl))(R)-bis(2-methylpropanoate)] |  |  | EC50 (HIV-1 (IIIB); [4]): 22 nM |
| C[C@H](Cn1cnc2c(N)ncnc21)OCP(=O)(NC(C)(C)C(=O)OCC12CCC(CC1)CC2)NC(C)(C)C(=O)OCC12CCC(CC1)CC2 [Example 48, Bis(bicyclo[2.2.2]octan-1-ylmethyl) 2,2′-(((((1-(6-amino-9H-purin-9-yl)propan-2-yl)oxy)methyl)phosphoryl)bis(azanediyl))(R)-bis(2-methylpropanoate)] | < 1 | 3340 | CC50 at 5 days [3]: > 100 nM; EC50 (HBV): 4.63 nM |
| C[C@H](Cn1cnc2c(N)ncnc21)OCP(=O)(NC(C)(C)C(=O)OCC1CC2(CCC2)C1)NC(C)(C)C(=O)OCC1CC2(CCC2)C1 (stereo partly drawn) [Example 50, Bis(spiro[3.3]heptan-2-ylmethyl) 2,2′-(((((1-(6-amino-9H-purin-9-yl)propan-2-yl)oxy)methyl)phosphoryl)bis(azanediyl))(R)-bis(2-methylpropanoate)] | < 1 | 8060 | CC50 at 5 days [3]: > 100 nM; EC50 (HBV): 3.1 nM |
| CCCCCCOC(=O)C(C)(C)NP(=O)(CO[C@H](C)Cn1cnc2c(NC(=O)CCCSC(C)=O)ncnc21)NC(C)(C)C(=O)OCCCCCC [Example 97, Dihexyl 2,2′-(((((1-(6-(4-(acetylthio)butanamido)-9H-purin-9-yl)propan-2-yl)oxy)methyl)phosphoryl)bis(azanediyl))(R)-bis(2-methylpropanoate)] | 13 (≈ 16.9 µM) | 10700 | EC50 (HIV-1 (IIIB); [4]): 13 nM |
| C[C@H](Cn1cnc2c(N)ncnc21)OCP(=O)(NC(C)(C)C(=O)O[C@@H](C)C1CCCCC1)NC(C)(C)C(=O)O[C@@H](C)C1CCCCC1 [Example 56, Bis((S)-1-cyclohexylethyl) 2,2′-((((((R)-1-(6-amino-9H-purin-9-yl)propan-2-yl)oxy)methyl)phosphoryl)bis(azanediyl))bis(2-methylpropanoate)] | 5 (≈ 7.38 µM) | 9650 | CC50 at 5 days [3]: > 100 nM; EC50 (HBV): 3.99 nM |
